System: Porphyromonas macacae JN713359
Test: mBB fluorescent C-S lyase / VSC production method with whole bacteria
Format: cell-based
Conditions: 0.12% CHX treatment; relative to control
Method: The C-S lyase activity was measured in order to quantitate VSC production by the bacteria. This was conducted by using monobromobiname, a fluorescent probe for thiol. The bacteria were washed and resuspended in Tris buffer (pH 8.5) at OD=1.0. The 250 μL reaction mix contained 4 mM benzylcysteine, 100 μM monobromobimane, 10 μM pyridoxal 5′-phosphate, 50 μL of the bacteria suspension and was made up to 250 μL with tris buffer (pH 8.5). The mix was incubated anaerobically for 45 minutes at 37° C. The C-S lyase activities were determined based on fluorescence at 490 nm (em) upon excitation at 385 nm (ex). All measurements were performed in biological duplicate with each repeated in technical triplicates, creating total of 6 data points per strain. Blank measurements (containing buffer instead of crude extract) were used to correct the values derived from the substrate. The standard curve was measured using Benzyl mercaptan at 8-128 μM. The protein concentration of the bacteria suspension was determined by means of a commercially available BCA kit in accordance with the manufacturer's method. The specific C-S lyase activity was calculated by dividing the increase in fluorescence equivalent to Benzyl mercaptan concentration by the total protein content of the suspension in mg and expressed as unit which was defined as “nM Benzyl mercaptan release/μg protein/minute”. […]

[H]/N=C(\N/C(=N/[H])NCCCCCCNC(=N)NC(=N)Nc1ccc(Cl)cc1)Nc1ccc(Cl)cc1 [CHX, Chlorhexidine, reference compound]
quantity of VSC produced as the control: 25%

Reference: patent US12084709B2, “Screening method” (Mars, Incorporated, priority 2018, dated 2024)
